Measurements: patent US9938279B2, “Method for treating disease or condition susceptible to amelioration by AMPK activators and compounds of formula which are useful to activate AMP-activated protein kinase (AMPK)” (ENERGENESIS BIOMEDICAL CO., LTD, priority 2013, dated 2018)

Assays:
[1] = tested on: AMPK; assay: AMPK activation assay (western blot phospho-AMPK Thr172) in 3T3-L1; assay type: cell-based, mouse; conditions: 3T3-L1 cells, 30 min treatment
Procedure: (§1) Effects of compounds on AMPK activation were analyzed in mouse muscle cell C2C12, mouse fibroblast 3T3-L1 and human hepatocyte Hep G2. Those cell lines were cultured in high-glucose Dulbecco's modified Eagle's medium (DMEM) containing 10% fetal bovine serum (FBS), 4 mM L-glutamine, 2 mM sodium pyruvate and 1% penicillin/streptomycin (Invitrogen GibcoBRL, Carlsbad, Calif., USA) at 37° C. under 5% CO2. Cells were plated at 3×10^5 per well (6-well plate). 24 h after plating, cells were treated with indicated compounds for 30 min followed by cell lysis and western blot analysis. Equal amount of protein were separated by SDS-PAGE and then electroblotted on to PVDF membranes. Membranes were blocked with 3% BSA in PBS for 60 min and incubated with anti-phospho-AMPK (Thr172) antibody (1:2,000, Cell signaling), anti-AMPK antibody (1:2,000, Cell signaling), anti-Glut4 antibody (1:1,000, Millipore) or anti-actin antibody (1:5,000; Chemicon International) at 4° C. overnight followed by the corresponding secondary antibody for 1 h at room temperature (RT). Immunoreactive bands were detected by enhanced chemiluminescence (ECL; Pierce, Rockford, Ill., USA) and recorded using Kodakfilm (Rochester, N.Y., USA). The detected signals were scanned and then quantified by using TotalLab Quant software (TotalLab).

[2] = tested on: AMPK; assay: AMPK activation assay (western blot phospho-AMPK Thr172) in C2C12; assay type: cell-based, mouse; conditions: C2C12 cells, 30 min treatment
Procedure: as §1

[3] = tested on: AMPK; assay: AMPK activation assay (western blot phospho-AMPK Thr172) in Hep G2; assay type: cell-based, human; conditions: Hep G2 cells, 30 min treatment
Procedure: as §1

Row | Compound | AMPK activation (% to control) 3T3-L1 ([1]; 1 microM) | AMPK activation (% to control) 3T3-L1 ([1]; 10 microM) | AMPK activation (% to control) 3T3-L1 ([1]; 100 microM) | AMPK activation (% to control) 3T3-L1 ([1]; 200 microM) | AMPK activation (% to control) C2C12 ([2]; 1 microM) | AMPK activation (% to control) C2C12 ([2]; 10 microM) | AMPK activation (% to control) C2C12 ([2]; 100 microM) | AMPK activation (% to control) C2C12 ([2]; 200 microM) | AMPK activation (% to control) Hep G2 ([3]; 1 microM) | AMPK activation (% to control) Hep G2 ([3]; 10 microM) | AMPK activation (% to control) Hep G2 ([3]; 100 microM) | AMPK activation (% to control) Hep G2 ([3]; 200 microM)
1 | Nc1nc(NCc2ccccc2)nc2nc[nH]c12 [Example 2-benzylamino-6-aminopurine, 2-benzylamino-6-aminopurine] | 119 % to control | 147 % to control | 217 % to control | 308 % to control | 110 % to control | 128 % to control | 259 % to control | 312 % to control | 105 % to control | 116 % to control | 235 % to control | 364 % to control
2 | Nc1nc(Br)nc2nc[nH]c12 [Example 2-bromoadenine, 2-bromoadenine] | 119 % to control | 188 % to control | 277 % to control | 361 % to control | 116 % to control | 172 % to control | 263 % to control | 349 % to control | 113 % to control | 190 % to control | 253 % to control | 354 % to control
3 | O=c1[nH]c(Br)nc2nc[nH]c12 [Example 2-bromohypoxanthine, 2-bromohypoxanthine] | 111 % to control | 176 % to control | 245 % to control | 357 % to control | 108 % to control | 142 % to control | 214 % to control | 321 % to control | 110 % to control | 160 % to control | 242 % to control | 359 % to control
4 | Oc1nc(Cl)nc2nc[nH]c12 [Example 2-chloro-6-hydroxypurine, 2-chloro-6-hydroxypurine] | 108 % to control | 145 % to control | 243 % to control | 356 % to control | 109 % to control | 156 % to control | 277 % to control | 331 % to control | 110 % to control | 163 % to control | 249 % to control | 375 % to control
5 | Nc1nc(Cl)nc2nc[nH]c12 [Example 2-chloroadenine, 2-chloroadenine] | 118 % to control | 143 % to control | 271 % to control | 311 % to control | 110 % to control | 155 % to control | 284 % to control | 326 % to control | 116 % to control | 139 % to control | 220 % to control | 314 % to control
6 | Nc1nc(F)nc2nc[nH]c12 [Example 2-fluoroadenine, 2-fluoroadenine] | 114 % to control | 165 % to control | 291 % to control | 323 % to control | 102 % to control | 112 % to control | 213 % to control | 303 % to control | 117 % to control | 180 % to control | 259 % to control | 315 % to control
7 | Oc1nc(NCc2ccccc2)c2[nH]cnc2n1 [Example 2-hydroxy-6-benzylaminopurine, 2-hydroxy-6-benzylaminopurine] | 115 % to control | 126 % to control | 230 % to control | 309 % to control | 108 % to control | 135 % to control | 244 % to control | 356 % to control | 109 % to control | 137 % to control | 261 % to control | 338 % to control
8 | Oc1nc(S)c2[nH]cnc2n1 [Example 2-hydroxy-6-mercaptopurine, 2-hydroxy-6-mercaptopurine] | 118 % to control | 122 % to control | 210 % to control | 277 % to control | 104 % to control | 109 % to control | 198 % to control | 251 % to control | 105 % to control | 108 % to control | 204 % to control | 222 % to control
9 | CNc1nc(O)nc2nc[nH]c12 [Example 2-hydroxy-6-methylaminopurine, 2-hydroxy-6-methylaminopurine] | 113 % to control | 162 % to control | 271 % to control | 382 % to control | 118 % to control | 151 % to control | 255 % to control | 361 % to control | 115 % to control | 148 % to control | 266 % to control | 354 % to control
10 | CCCNc1nc(O)nc2nc[nH]c12 [Example 2-hydroxy-6-propylaminopurine, 2-hydroxy-6-propylaminopurine] | 109 % to control | 129 % to control | 233 % to control | 361 % to control | 114 % to control | 122 % to control | 201 % to control | 324 % to control | 110 % to control | 133 % to control | 270 % to control | 339 % to control
11 | Nc1nc(O)nc2nc[nH]c12 [Example 2-hydroxyadenine, 2-hydroxyadenine] | 117 % to control | 171 % to control | 264 % to control | 351 % to control | 111 % to control | 166 % to control | 275 % to control | 315 % to control | 118 % to control | 143 % to control | 220 % to control | 338 % to control
12 | Nc1nc(I)nc2nc[nH]c12 [Example 2-iodoadenine, 2-iodoadenine] | 116 % to control | 179 % to control | 237 % to control | 358 % to control | 114 % to control | 143 % to control | 214 % to control | 311 % to control | 115 % to control | 151 % to control | 227 % to control | 341 % to control
